Like-named read-outs stand apart in the source and are kept apart here.
Target: T1, human TRPM8 receptor (Homo sapiens, UniProt Q7Z2W7)
T1 construct: expressed in transfected cells; host or cells: HEK293, stably transfected, tetracycline-inducible expression
Test: Assay on TRPM8 modulators: Ca2+-sensitive dye (Fluo-4) fluorescence in HEK293-TRPM8 test cells
Assay type: cell-based
Set-up: relative TRPM8 activation: concentration or dose not given beside the values
Conditions: for EC50: HEK293-TRPM8 cells; for relative TRPM8 activation: HEK293 cells recombinantly expressing human TRPM8
Source text: The starting point for cloning the human TRPM8 receptor is an LnCaP cDNA bank. This is commercially available (e.g. BioChain, Hayward, USA) or can be produced from the andro gene-sensitive human prostate adenocarcinoma cell line LnCaP (e.g. ATCC, CRL1740 or ECACC, 891 1021 1) using standard kits.
The coding TRPM8 sequence (see e.g. http://www. ncbi.nlm.nih.gov/entrez/viewer.fcgi?db=nuccore&id=109689694) can be PCR-amplified and cloned using standard methods. The human TRPM8 gene isolated in this way was used to produce the plasmid plnd_M8. Alternatively, the TRPM8 gene can also be produced synthetically.
A stably transfected HEK293 cell line was produced as a test cell system using human TRPM8 DNA. Preference was given to HEK293, which offers the possibility of inducing TRPM8 expression using tetracycline via the plasmid introduced.
A test similar to the test already described in the literature by Behrendt H. J. et al, Br. J. Pharmacol. 141, 2004, 737-745, is performed. The agonization or antagonization of the receptor can be quantified using a Ca^2+-sensitive dye (e.g. FURA, Fluo-4 etc.). Agonists alone cause an increase in the Ca^2+ signal; antagonists cause a reduction in the Ca^2+ signal in the presence of e.g. menthol (detected in each case using the Fluo-4 dye, which has different fluorescence properties due to Ca^2+ ions).
First, a fresh culture of transformed HEK cells is prepared in cell culture flasks in the usual way. The HEK293-TRPM8 test cells are detached from the cell culture flasks using trypsin and 40,000 cells/well are seeded with 100 μl medium in 96-well plates (Greiner #655948 poly-D-lysine-coated). To induce the TRPM8 receptor, tetracycline is added to the growth medium (DMEM/HG, 10% FCS tetracycline-free, 4 mM L-glutamine, 15 μg/ml blasticidin, 100 μg/ml hygromycin B, 1 μg/ml tetracycline).
On the following day, the cells are loaded with Fluo-4AM dye and the test is performed. Proceed as follows: Addition of 100 μl/well staining solution Ca-4 kit (RB 141, Molecular Devices) to each 100 μl medium (DMEM/HG, 10% FCS tetracycline-free, 4 mM L-glutamine, 15 μg/ml blasticidin, 100 μg/ml hygromycin B, 1 μg/ml tetracycline).
Incubation in incubator, 30 minutes/37° C./5% CO2, 30 minutes/RT.
Preparation of the test substances (different concentrations in 200 μl HBSS buffer), as well as positive controls (different concentrations of menthol, icilin or lonomycin in 200 μl HBSS buffer) and negative controls (only 200 μl HBSS buffer) Addition of the test substances in quantities of 50 μl/well and measurement of the fluorescence change (e.g. in the assay device FLIPR, Molecular Devices or NovoStar, BMG) at 485 nm excitation, 520 nm emission, and evaluation of the potency of the different substances/concentrations and determination of the ECG. e.g. in the FLIPR assay device, Molecular Devices or NovoStar, BMG) at 485 nm excitation, 520 nm emission, and evaluation of the potency of the various substances/concentrations and determination of the EC50 values.
The test substances are used in triplicates in concentrations of 0.1-200 μM in the assay. Normally, the compounds are kept ready in DMSO solutions and diluted down to a maximum DMSO concentration of 2% for the assay.
The activity of the active substances in relation to activation of the TRPM8 channel is determined using the assay described. This is done in a concentration-dependent manner. For each active substance, 6 to 10 concentrations are measured as standard. A mathematical method (4-parameter or 5-parameter logistic curve fitting) can be used to determine the EC50 value as the inflection point of the sigmoidal curve from the activity values determined. These are standard biochemical methods that are familiar to experts.

[1] = TRPM8 activation, 6 to 10 concentrations, logistic curve fitting, read-out: EC50 value

T1 sequence (Q7Z2W7 whole entry): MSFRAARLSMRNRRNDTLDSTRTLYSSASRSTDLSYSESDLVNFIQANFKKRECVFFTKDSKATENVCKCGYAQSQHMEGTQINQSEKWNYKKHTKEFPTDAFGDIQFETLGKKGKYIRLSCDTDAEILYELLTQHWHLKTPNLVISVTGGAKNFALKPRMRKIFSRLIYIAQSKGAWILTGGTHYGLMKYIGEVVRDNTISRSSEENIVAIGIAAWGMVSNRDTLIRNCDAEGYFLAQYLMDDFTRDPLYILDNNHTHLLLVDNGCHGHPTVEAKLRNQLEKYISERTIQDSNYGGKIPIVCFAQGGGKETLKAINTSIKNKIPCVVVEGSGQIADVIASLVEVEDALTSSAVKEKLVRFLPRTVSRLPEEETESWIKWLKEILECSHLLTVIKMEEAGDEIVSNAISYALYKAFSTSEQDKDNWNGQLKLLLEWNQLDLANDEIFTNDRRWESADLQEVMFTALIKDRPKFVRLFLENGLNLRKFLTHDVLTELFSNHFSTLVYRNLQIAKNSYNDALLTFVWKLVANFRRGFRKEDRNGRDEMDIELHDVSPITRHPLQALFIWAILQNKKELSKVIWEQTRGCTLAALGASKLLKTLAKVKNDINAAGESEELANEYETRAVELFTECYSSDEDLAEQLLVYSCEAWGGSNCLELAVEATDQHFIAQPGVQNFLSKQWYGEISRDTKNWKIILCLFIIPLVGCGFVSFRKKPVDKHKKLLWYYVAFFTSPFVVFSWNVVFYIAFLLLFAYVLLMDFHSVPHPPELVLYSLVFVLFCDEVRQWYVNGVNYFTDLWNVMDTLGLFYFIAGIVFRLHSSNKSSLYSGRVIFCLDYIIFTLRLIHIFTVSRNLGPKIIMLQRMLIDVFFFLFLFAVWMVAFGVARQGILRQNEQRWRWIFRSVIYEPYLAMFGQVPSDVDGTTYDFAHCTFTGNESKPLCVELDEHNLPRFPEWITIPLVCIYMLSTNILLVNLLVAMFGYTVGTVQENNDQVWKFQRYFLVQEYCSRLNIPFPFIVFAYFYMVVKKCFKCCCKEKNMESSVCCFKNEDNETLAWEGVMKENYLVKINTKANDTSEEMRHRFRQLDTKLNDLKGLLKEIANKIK

Structure (SMILES)	relative TRPM8 activation [%]	also measured
CNC(=O)C(C)Sc1nc(-c2ccccc2)c(-c2ccccc2)o1 (stereo not shown) [Compound A-01, 3-carboxy-3,5-dihydroxy-5-OXO-pentanoate;2-(4,5-diphenyloxazol-2-yl)sulfanylpropa noyl-methyl-ammonium]	–	EC50 (Table 6, read-out: TRPM8 EC50): 10 nM; EC50 (Table 8, read-out: TRPM8 EC50): 10 nM
CNC(=O)C(C)Sc1nc(-c2ccccc2)c(-c2ccccc2)o1 (stereo not shown) [Compound A-03, 2-(4,5-diphenyloxazol-2-yl)sulfanylpropa noyl-methyl-ammonium; chloride]	–	EC50 [1]: ≤ 1000 nM; EC50 (Table 6, read-out: TRPM8 EC50): 10 nM; EC50 (Table 8, read-out: TRPM8 EC50): 10 nM
O=C(CSc1nc(-c2ccccc2)c(-c2ccccc2)o1)NC1CC1 [Compound A-06, N-cyclopropyl-2-(4,5-diphenyloxazol-2-yl)sulfanyl-acetamide]	–	EC50 [1]: ≤ 1000 nM; EC50 (Table 6, read-out: TRPM8 EC50): 340 nM; EC50 (Table 8, read-out: TRPM8 EC50): 340 nM
CSCC(=O)N1CCCCC1c1nc(-c2ccc(C)cc2)co1 (stereo not shown) [Compound A-08, 2-methylsulfanyl-1-[2-[4-(p-tolyl)oxazol-2-yl]-1-piperidyl] ethanone]	–	EC50 [1]: ≤ 1000 nM; EC50 (Table 6, read-out: TRPM8 EC50): 110 nM; EC50 (Table 8, read-out: TRPM8 EC50): 110 nM
CNC(=O)CSc1nc(-c2ccccc2)c(-c2ccccc2)o1 [Compound A-15, 2-(4,5-diphenyloxazol-2-yl)sulfanyl-N-methyl-acetamide]	–	EC50 (Table 6, read-out: TRPM8 EC50): 7140 nM; EC50 (Table 8, read-out: TRPM8 EC50): 7140 nM
CCNC(=O)CSc1nc(-c2ccccc2)c(-c2ccccc2)o1 [Compound A-17, 2-(4,5-diphenyloxazol-2-yl)sulfanyl-N-ethyl-acetamide]	–	EC50 (Table 6, read-out: TRPM8 EC50): 5850 nM; EC50 (Table 8, read-out: TRPM8 EC50): 5850 nM
CC(=O)NCCc1nc(-c2ccccc2)c(-c2ccccc2)o1 [Compound A-24, N-[2-(4,5-diphenyloxazol-2-yl)ethyl] acetamide]	56	EC50 (Table 6, read-out: TRPM8 EC50): 11300 nM; EC50 (Table 8, read-out: TRPM8 EC50): 11300 nM
CNC(=O)C(C)Sc1nc(-c2ccc(C)cc2)c(-c2ccc(C)cc2)o1 (stereo not shown) [Compound A-25, 2-[4,5-bis (p-tolyl)oxazol-2-yl]sulfanyl-N-methyl-propanamide]	55	–
CNC(=O)C(C)S(=O)(=O)c1nc(-c2ccccc2)c(-c2ccccc2)o1 (stereo not shown) [Compound A-28, 2-(4,5-diphenyloxazol-2-yl)sulfonyl-N-methyl-propanamide]	40	–
CNC(=O)CCc1nc(-c2ccc(C)cc2)c(-c2ccc(C)cc2)o1 [Compound A-32, 3-[4,5-bis (p-tolyl)oxazol-2-yl]-N-methyl-propanamide]	23	–
CC(Sc1nc(-c2ccccc2)c(-c2ccccc2)o1)C(=O)NC(C)(C)C (stereo not shown) [Compound A-33, N-tert-butyl-2-(4,5-diphenyloxazol-2-yl) sulfanyl-propanamide]	21	–
CN(C)C(=O)CCc1nc(-c2ccccc2)c(-c2ccccc2)o1 [Compound A-34, 3-(4,5-diphenyloxazol-2-yl)-N,N-dimethyl-propanamide]	16	–
CNC(=O)/C=C/c1nc(-c2ccccc2)c(-c2ccccc2)o1 [Compound A-35, (E)-3-(4,5-diphenyloxazol-2-yl)-N-methyl-prop-2-enamide]	13	–
CNC(=O)CCCc1nc(-c2ccccc2)c(-c2ccccc2)o1 [Compound A-36, 4-(4,5-diphenyloxazol-2-yl)-N-methyl-butanamide]	12	–
CCC(=O)CCc1nc(-c2ccccc2)c(-c2ccccc2)o1 [Compound A-40, 1-(4,5-diphenyloxazol-2-yl)pentan-3-one]	5	–
c1ccc(-c2nc(C3CCCCN3)oc2-c2ccccc2)cc1 (stereo not shown) [Compound A-44, 4,5-diphenyl-2-(2-piperidyl)oxazole]	3	–
CNC(=O)CCSc1ncco1 [Compound A-45, N-methyl-3-oxazol-2-ylsulfanyl-propanamide]	2	–
CNC(=O)C(C)Sc1nc(-c2ccccc2)c(-c2ccccc2)[nH]1 (stereo not shown) [Compound A-47, 2-[(4,5-diphenyl-1H-imidazol-2-yl)sulfanyl]-N-methyl-propanamide]	2	–

Second part, led by results:

relative TRPM8 activation [%]	Structure (SMILES)	also measured
75	CC(C)NC(=O)CSc1nc(-c2ccccc2)c(-c2ccccc2)o1 [Compound A-19, 2-(4,5-diphenyloxazol-2-yl)sulfanyl-N-isopropyl-acetamide]	–
70	CSCC(=O)N1CCCCC1c1nc(-c2ccccc2)c(-c2ccccc2)o1 (stereo not shown) [Compound A-21, 1-[2-(4,5-diphenyloxazol-2-yl)-1-piperidyl]-2-methylsulfanyl-ethanone]	–
62	CN(C)CCSc1nc(-c2ccccc2)c(-c2ccccc2)o1 [Compound A-23, 2-(4,5-diphenyloxazol-2-yl)sulfanyl-N,N-dimethyl-ethanamine]	–
51	CC(CO)NC(=O)CSc1nc(-c2ccccc2)c(-c2ccccc2)o1 (stereo not shown) [Compound A-26, 2-(4,5-diphenyloxazol-2-yl)sulfanyl-N-(2-hydroxy-1-methyl-ethyl)acetamide]	–
42	CN(C(=O)CSc1nc(-c2ccccc2)c(-c2ccccc2)o1)C1CC1 [Compound A-27, N-cyclopropyl-2-(4,5-diphenyloxazol-2-yl)sulfanyl-N-methyl-acetamide]	EC50 (Table 6, read-out: TRPM8 EC50): 18000 nM; EC50 (Table 8, read-out: TRPM8 EC50): 18000 nM
36	CCN(CC)C(=O)CSc1nc(-c2ccccc2)c(-c2ccccc2)o1 [Compound A-29, 2-(4,5-diphenyloxazol-2-yl)sulfanyl-N,N-diethyl-acetamide]	–
26	CC(Sc1nc(-c2ccccc2)c(-c2ccccc2)o1)C(=O)NC1CCCC1 (stereo not shown) [Compound A-30, N-cyclopentyl-2-(4,5-diphenyloxazol-2-yl)sulfanyl-propanamide]	–
24	O=C(CCc1nc(-c2ccccc2)c(-c2ccccc2)o1)C1CC1 [Compound A-31, 1-cyclopropyl-3-(4,5-diphenyloxazol-2-yl)propan-1-one]	–
7	CC(C)CNC(=O)C(C)Sc1nc(-c2ccccc2)c(-c2ccccc2)o1 (stereo not shown) [Compound A-37, 2-(4,5-diphenyloxazol-2-yl)sulfanyl-N-isobutyl-propanamide]	–
6	O=C(CSc1nc(-c2ccccc2)c(-c2ccccc2)o1)NC1CCCC1 [Compound A-38, N-cyclopentyl-2-(4,5-diphenyloxazol-2-yl)sulfanyl-acetamide]	–
4	CC1CCCCC1NC(=O)CSc1nc(-c2ccccc2)c(-c2ccccc2)o1 (stereo not shown) [Compound A-42, 2-(4,5-diphenyloxazol-2-yl)sulfanyl-N-(2-methylcyclohexyl) acetamide]	–
3	O=C(CSc1nc(-c2ccccc2)c(-c2ccccc2)o1)NC1CCC1 [Compound A-43, N-cyclobutyl-2-(4,5-diphenyloxazol-2-yl)sulfanyl-acetamide]	–
2	CC(C)C(C)NC(=O)CSc1nc(-c2ccccc2)c(-c2ccccc2)o1 (stereo not shown) [Compound A-46, N-(1,2-dimethylpropyl)-2-(4,5-diphenyloxazol-2-yl)sulfanyl-acetamide]	–
2	CCC(=O)C(C)Sc1nc(-c2ccccc2)c(-c2ccccc2)o1 (stereo not shown) [Compound A-48, 2-(4,5-diphenyloxazol-2-yl) sulfanylpentan-3-one]	–
2	CNC(=O)CCSc1nc(-c2ccccc2)c(-c2ccccc2)o1 [Compound A-49, 3-(4,5-diphenyloxazol-2-yl)sulfanyl-N-methyl-propanamide]	–

From patent US20250163006A1, “New Coolants, and Preparations Containing Same” (Symrise AG, priority 2022, published 2025)
